Assay [1] addresses Tyro3 tyrosine kinase (Homo sapiens (Human), UniProt Q06418). Kind of assay: Evaluation of activity against Tyro3 tyrosine kinase. Type of assay: biochemical.
For assay [2], the target named is Mer tyrosine kinase (Homo sapiens (Human), UniProt Q12866). Kind of assay: Evaluation of activity against Mer tyrosine kinase. Type of assay: biochemical.

Each structure is given as a SMILES string. Bounds are passed on as bounds.

In general, IC50 refers to the concentration that inhibits the measured activity by half.

Mer tyrosine kinase, sequence (Q12866 21-999): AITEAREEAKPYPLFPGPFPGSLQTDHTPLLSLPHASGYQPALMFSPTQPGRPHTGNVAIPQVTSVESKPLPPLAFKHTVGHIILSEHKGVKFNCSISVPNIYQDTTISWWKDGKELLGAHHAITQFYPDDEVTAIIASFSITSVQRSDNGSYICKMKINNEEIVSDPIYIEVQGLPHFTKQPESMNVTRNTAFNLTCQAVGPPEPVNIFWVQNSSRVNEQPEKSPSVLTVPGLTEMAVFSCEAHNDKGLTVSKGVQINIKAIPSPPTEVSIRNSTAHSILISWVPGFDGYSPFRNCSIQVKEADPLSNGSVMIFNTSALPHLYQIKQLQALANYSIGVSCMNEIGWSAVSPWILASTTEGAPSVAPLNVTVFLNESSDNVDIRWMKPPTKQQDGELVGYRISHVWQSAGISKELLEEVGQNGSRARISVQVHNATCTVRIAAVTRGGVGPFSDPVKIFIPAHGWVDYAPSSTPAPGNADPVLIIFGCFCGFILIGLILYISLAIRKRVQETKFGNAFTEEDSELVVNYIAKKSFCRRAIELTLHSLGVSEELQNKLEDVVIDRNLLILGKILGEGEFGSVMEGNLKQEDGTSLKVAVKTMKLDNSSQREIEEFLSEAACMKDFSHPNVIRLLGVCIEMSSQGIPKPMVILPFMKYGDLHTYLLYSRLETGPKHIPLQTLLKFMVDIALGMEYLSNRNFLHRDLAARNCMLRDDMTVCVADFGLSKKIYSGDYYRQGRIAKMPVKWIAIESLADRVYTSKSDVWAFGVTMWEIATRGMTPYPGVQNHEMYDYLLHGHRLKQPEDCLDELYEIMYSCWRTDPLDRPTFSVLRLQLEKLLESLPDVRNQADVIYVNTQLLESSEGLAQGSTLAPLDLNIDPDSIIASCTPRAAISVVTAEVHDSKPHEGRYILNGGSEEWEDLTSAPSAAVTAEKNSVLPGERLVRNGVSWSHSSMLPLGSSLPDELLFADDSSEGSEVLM
Tyro3 tyrosine kinase, sequence (Q06418 41-890): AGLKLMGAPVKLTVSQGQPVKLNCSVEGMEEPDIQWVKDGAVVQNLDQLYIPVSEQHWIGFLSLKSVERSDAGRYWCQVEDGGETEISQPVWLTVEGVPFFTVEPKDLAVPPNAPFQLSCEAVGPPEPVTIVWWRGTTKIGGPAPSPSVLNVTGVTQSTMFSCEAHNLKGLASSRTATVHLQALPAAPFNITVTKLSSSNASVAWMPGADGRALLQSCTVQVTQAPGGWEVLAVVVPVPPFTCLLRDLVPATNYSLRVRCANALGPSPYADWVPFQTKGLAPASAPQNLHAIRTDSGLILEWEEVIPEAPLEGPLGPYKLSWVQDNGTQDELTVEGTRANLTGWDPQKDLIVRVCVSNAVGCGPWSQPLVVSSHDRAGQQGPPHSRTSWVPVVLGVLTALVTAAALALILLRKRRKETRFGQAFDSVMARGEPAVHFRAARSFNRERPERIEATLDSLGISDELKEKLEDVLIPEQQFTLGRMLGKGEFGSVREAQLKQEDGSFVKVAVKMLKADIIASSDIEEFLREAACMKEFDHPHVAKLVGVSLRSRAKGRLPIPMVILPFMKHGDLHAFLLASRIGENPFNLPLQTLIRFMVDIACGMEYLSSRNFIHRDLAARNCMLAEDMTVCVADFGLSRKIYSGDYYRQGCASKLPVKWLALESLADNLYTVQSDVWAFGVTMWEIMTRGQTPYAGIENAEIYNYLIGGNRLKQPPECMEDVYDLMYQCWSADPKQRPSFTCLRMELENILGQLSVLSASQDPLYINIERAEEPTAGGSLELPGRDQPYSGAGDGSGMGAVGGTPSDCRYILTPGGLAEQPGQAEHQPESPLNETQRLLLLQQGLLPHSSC

`CCC[C@H](C)Nc1ncc2c(C3CCN(C(=O)c4cc(OC)cc(OC)c4)CC3)cn([C@H]3CC[C@H](O)CC3)c2n1` [compound 80, (3,5-dimethoxyphenyl)(4-(7-((1R,4S)-4-hydroxycyclohexyl)-2-(((S)-pentan-2-yl)amino)-7H-pyrrolo[2,3-d]pyrimidin-5-yl)piperidin-1-yl)methanone]: the results for the IC50 in assay [1] and in assay [2] were 100 to 1000 nM and less than 10 nM, respectively.

The values are drawn from US11001586B2, “Alkyl pyrrolopyrimidine analogs and methods of making and using same” (The University of North Carolina at Chapel Hill, priority 2016, dated 2021).
